Laboratory results published in ChEMBL document CHEMBL3992562, “Multifunctional thioxanthone derivatives with acetylcholinesterase, monoamine oxidases and β-amyloid aggregation inhibitory activities as potential agents against Alzheimer's disease” (Bioorg Med Chem, 2017).
pIC50: −log10 of the molar value. Active and inactive are the calls of the source. The calls are words filed in the database; no cut-off is given here.

How the values were obtained:
Homo sapiens = organism: Homo sapiens; assay: Selectivity index, ratio of IC50 for recombinant human MAO-A expressed in baculovirus infected BTI insect cells to IC50 for recombinant human MAO-B expressed in baculovirus infected BTI insect cells
[1] = Antioxidant activity assessed as trolox equivalent of AAPH-induced radical scavenging activity at 5 uM incubated for 15 mins prior to APPH challenge measured every minute for 90 mins by ORAC-FL assay; assay type: functional
Acetylcholinesterase = Acetylcholinesterase (Electrophorus electricus, UniProt O42275); assay: Inhibition of electric eel AChE using acetylthiocholine iodide as substrate measured after 15 mins by Ellman's method
Sequence of Acetylcholinesterase (O42275 whole entry): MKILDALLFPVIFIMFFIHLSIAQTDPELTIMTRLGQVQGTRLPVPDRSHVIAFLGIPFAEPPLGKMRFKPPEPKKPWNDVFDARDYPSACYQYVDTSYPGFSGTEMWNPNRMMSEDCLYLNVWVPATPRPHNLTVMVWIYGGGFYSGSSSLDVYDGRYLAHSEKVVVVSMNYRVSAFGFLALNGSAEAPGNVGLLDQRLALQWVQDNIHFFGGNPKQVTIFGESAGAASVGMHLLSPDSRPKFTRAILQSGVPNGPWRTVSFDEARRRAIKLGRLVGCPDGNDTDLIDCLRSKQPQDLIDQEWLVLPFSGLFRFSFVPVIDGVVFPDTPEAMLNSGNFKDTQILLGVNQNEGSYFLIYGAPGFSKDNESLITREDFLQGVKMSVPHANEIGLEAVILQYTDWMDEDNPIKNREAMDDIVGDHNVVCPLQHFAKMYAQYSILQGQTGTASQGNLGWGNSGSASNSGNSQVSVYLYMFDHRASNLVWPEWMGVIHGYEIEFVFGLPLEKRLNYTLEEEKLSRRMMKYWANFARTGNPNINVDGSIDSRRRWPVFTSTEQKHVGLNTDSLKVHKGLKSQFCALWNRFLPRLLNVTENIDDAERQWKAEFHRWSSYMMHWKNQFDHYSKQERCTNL

[2] = system: BuChE (butyrylcholinesterase); assay: Inhibition of rat serum BuChE at 50 uM using S-butylthiocholine iodide as substrate measured after 15 mins by Ellman's method relative to control; conditions: probe S-butylthiocholine iodide
[3] = Inhibition of cupric ion-mediated amyloid beta (1 to 42) aggregation at 25 uM measured after 24 hrs by ThT fluorescence assay relative to control
[4] = molecular target: T1, Amine oxidase [flavin-containing] A (Homo sapiens, UniProt P21397); assay: Inhibition of recombinant human MAO-A expressed in baculovirus infected BTI insect cells using kynuramine as substrate after 30 mins by fluorimetric method
T1 sequence (P21397 whole entry): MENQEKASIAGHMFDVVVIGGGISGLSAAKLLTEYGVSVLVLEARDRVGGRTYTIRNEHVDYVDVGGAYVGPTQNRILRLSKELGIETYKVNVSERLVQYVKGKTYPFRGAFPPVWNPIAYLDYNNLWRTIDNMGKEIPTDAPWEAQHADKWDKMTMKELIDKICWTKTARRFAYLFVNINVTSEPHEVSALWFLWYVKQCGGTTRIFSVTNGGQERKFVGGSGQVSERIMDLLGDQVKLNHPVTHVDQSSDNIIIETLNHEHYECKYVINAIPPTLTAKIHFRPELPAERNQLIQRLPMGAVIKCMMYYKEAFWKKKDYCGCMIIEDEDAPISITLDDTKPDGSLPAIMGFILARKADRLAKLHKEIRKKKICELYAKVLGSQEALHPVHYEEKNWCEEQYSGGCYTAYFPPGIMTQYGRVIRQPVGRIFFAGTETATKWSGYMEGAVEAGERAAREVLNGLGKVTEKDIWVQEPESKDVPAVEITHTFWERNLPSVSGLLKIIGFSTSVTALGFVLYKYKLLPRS

[5] = molecular target: Amyloid-beta precursor protein (Homo sapiens) (UniProt P05067); assay: Inhibition of self-induced amyloid beta (1 to 42) (unknown origin) aggregation at 25 uM measured after 24 hrs by ThT fluorescence assay relative to control
Sequence of Amyloid-beta precursor protein (Homo sapiens) (P05067 whole entry): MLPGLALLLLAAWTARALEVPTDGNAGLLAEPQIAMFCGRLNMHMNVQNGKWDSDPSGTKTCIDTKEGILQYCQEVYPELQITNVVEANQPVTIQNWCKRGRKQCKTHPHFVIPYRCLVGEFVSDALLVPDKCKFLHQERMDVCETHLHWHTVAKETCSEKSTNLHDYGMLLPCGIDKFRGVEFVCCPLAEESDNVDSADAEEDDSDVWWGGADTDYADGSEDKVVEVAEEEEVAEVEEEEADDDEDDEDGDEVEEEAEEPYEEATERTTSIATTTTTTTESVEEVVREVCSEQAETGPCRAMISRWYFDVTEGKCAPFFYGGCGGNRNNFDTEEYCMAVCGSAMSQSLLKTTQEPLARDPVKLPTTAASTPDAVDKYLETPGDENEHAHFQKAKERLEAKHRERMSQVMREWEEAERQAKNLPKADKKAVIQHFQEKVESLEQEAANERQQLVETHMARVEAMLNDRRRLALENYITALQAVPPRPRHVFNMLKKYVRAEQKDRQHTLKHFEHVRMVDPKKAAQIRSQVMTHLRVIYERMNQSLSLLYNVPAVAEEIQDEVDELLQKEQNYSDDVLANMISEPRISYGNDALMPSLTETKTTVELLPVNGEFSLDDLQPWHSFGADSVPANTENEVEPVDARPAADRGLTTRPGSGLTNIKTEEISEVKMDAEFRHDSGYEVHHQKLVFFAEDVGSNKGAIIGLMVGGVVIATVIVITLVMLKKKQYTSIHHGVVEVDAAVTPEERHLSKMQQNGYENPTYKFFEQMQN

[6] = molecular target: T2, Amine oxidase [flavin-containing] B (Homo sapiens, UniProt P27338); assay: Inhibition of recombinant human MAO-B expressed in baculovirus infected BTI insect cells using kynuramine as substrate after 30 mins by fluorimetric method; assay type: cell-based
T2 sequence (P27338 whole entry): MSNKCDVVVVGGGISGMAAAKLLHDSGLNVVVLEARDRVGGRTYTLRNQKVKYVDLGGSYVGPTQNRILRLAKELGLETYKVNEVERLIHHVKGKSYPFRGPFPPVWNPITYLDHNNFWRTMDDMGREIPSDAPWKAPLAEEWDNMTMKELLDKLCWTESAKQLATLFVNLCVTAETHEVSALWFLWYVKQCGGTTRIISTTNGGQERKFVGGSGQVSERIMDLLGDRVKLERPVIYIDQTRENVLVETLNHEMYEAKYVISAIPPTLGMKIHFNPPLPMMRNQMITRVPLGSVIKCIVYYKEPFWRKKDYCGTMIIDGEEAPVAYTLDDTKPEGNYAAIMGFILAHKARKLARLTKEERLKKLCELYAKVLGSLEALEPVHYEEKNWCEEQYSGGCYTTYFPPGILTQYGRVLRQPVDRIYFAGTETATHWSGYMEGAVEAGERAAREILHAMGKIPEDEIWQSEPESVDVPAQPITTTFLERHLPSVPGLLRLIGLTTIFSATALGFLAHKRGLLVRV

[7] = Metal chelating activity assessed as mole fraction of compound required to show 1:1.5 stoichiometry for Cu2+-compound complex at 37.5 uM after 30 mins by UV-visible spectrometry; assay type: functional
[8] = Metal chelating activity assessed as Zn2+-compound complex formation at 37.5 uM after 30 mins by UV-visible spectrometry; assay type: functional
[9] = Metal chelating activity assessed as Cu2+-compound complex formation at 37.5 uM after 30 mins by UV-visible spectrometry; assay type: functional
[10] = Cytotoxicity against human SH-SY5Y cells assessed as cell viability at 100 uM after 24 hrs by MTT assay relative to control; assay type: cell-based; conditions: read-out: Activity
[11] = Permeability of the compound at 100 ug/ml after 18 hrs by PAMPA; assay type: physicochemical; conditions: read-out: permeability
[12] = Cytotoxicity against human SH-SY5Y cells assessed as cell viability at 10 uM after 24 hrs by MTT assay relative to control; assay type: cell-based; conditions: read-out: Activity
[13] = Cytotoxicity against human SH-SY5Y cells assessed as cell viability at 1 uM after 24 hrs by MTT assay relative to control; assay type: cell-based; conditions: read-out: Activity
[14] = Metal chelating activity assessed as Fe2+-compound complex formation at 37.5 uM after 30 mins by UV-visible spectrometry; assay type: functional
[15] = molecular target: Acetylcholinesterase (Electrophorus electricus) (UniProt O42275); assay: Mixed-type inhibition of electric eel AChE using acetylthiocholine iodide as substrate preincubated for 15 mins followed by substrate addition by Lineweaver-Burk plot analysis
Sequence of Acetylcholinesterase (Electrophorus electricus) (O42275 24-633 limits assumed): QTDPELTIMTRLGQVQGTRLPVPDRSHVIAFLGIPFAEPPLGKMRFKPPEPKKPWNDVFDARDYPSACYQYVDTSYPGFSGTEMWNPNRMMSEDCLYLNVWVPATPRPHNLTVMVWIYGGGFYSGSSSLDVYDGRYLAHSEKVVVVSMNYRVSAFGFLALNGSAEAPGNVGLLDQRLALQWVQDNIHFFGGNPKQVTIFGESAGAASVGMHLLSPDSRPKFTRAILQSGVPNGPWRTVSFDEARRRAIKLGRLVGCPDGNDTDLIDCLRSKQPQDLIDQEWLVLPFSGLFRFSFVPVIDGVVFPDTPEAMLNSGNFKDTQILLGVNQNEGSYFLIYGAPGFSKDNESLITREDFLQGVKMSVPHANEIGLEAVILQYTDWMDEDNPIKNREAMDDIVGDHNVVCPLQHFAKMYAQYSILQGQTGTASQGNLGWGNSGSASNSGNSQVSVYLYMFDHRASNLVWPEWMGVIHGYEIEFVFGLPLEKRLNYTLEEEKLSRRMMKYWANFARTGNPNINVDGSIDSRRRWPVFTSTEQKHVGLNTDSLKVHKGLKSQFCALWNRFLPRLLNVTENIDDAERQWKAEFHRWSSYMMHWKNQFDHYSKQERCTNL

[16] = Metal chelating activity assessed as Al3+-compound complex formation at 37.5 uM after 30 mins by UV-visible spectrometry; assay type: functional
[17] = Inhibition of rat serum BuChE using S-butylthiocholine iodide as substrate measured after 15 mins by Ellman's method

Compound | Ratio IC50 (Homo sapiens) | Activity [1] [µMequiv/µM] | pIC50 (Acetylcholinesterase) | inhibition at 0.25 h, 50 µM [2] [%] | inhibition [3] [%] | pIC50 [4] | inhibition [5] [%] | pIC50 [6] | Activity [7] [molar ratio] | Activity [8] | Activity [9] | viability at 24 h, 100 µM [10] [%] | Papp at 18 h, 100 ug/ml [11] [×10⁻⁶ cm/s] | viability at 24 h, 10 µM [12] [%] | viability at 24 h, 1 µM [13] [%] | Activity [14] | inhibition [15] | Activity [16] | pIC50 [17]
CCN(CCCOc1cc(O)c2c(=O)c3ccccc3sc2c1)Cc1ccccc1 | 1.85 | 0.59 | 4.74 | 31.8 | 70.9 | 4.88 | 46.9 | 5.15 | – | – | – | – | – | – | – | – | – | – | –
CCN(CCCCCCOc1cc(O)c2c(=O)c3ccccc3sc2c1)Cc1ccccc1N(C)C | 1.12 | 0.74 | 6.23 | 28.7 | 87.7 | 6.00 | 74.8 | 6.05 | 1.5 | inactive | Active | 68.1 | 3.49 | 96.8 | 99.7 | Active | Active | inactive | –
COc1ccccc1CN(C)CCCCCCOc1cc(O)c2c(=O)c3ccccc3sc2c1 | 2.71 | 0.66 | 5.37 | 14.9 | 86.5 | 5.99 | 68 | 6.42 | – | – | – | – | – | – | – | – | – | – | –
CCN(CCCCOc1ccc(-c2coc3cc(OCCCCN(CC)Cc4ccccc4OC)cc(O)c3c2=O)cc1)Cc1ccccc1OC | – | 0.3 | – | 20 | 77.8 | – | – | – | – | – | – | – | – | – | – | – | – | – | –
CCN(CCCCOc1cc(O)c2c(=O)c3ccccc3sc2c1)Cc1ccccc1N(C)C | 0.76 | 0.95 | 5.54 | 30.3 | 82.1 | 5.81 | 72.1 | 5.69 | – | – | – | – | – | – | – | – | – | – | –
CCN(CCCCOc1cc(O)c2c(=O)c3ccccc3sc2c1)Cc1ccccc1OC | 1.16 | 0.57 | 4.81 | < 5 | 82 | 5.99 | 89.4 | 6.06 | – | – | – | – | – | – | – | – | – | – | –
CCN(CCCOc1cc(O)c2c(=O)c3ccccc3sc2c1)Cc1ccc(N(C)C)cc1 | 0.79 | 1.38 | 4.75 | < 5 | 85.4 | 5.55 | 64.8 | 5.45 | – | – | – | – | – | – | – | – | – | – | –
COc1cc2c(cc1OC)C(=O)C(CC1CCN(Cc3ccccc3)CC1)C2 (stereo unspecified) [DONEPEZIL] | – | – | – | – | – | – | – | – | – | – | – | – | – | – | – | – | – | – | 4.67
COc1ccccc1CN(C)CCCCOc1cc(O)c2c(=O)c3ccccc3sc2c1 | 1.05 | 1.04 | 5.04 | 5.62 | 88 | 6.21 | 79.9 | 6.23 | – | – | – | – | – | – | – | – | – | – | –
O=c1c2ccccc2sc2cc(O)cc(O)c12 | 0.93 | 0.42 | 4.41 | < 5 | 31.4 | 6.55 | 9.5 | 6.52 | – | – | – | – | – | – | – | – | – | – | –
CCN(CCCOc1cc(O)c2c(=O)c3ccccc3sc2c1)Cc1ccccc1OC | 4.35 | 0.68 | 5.55 | 17.3 | 80 | 5.09 | 68.2 | 5.73 | – | – | – | – | – | – | – | – | – | – | –
